Experimental data taken from patent US20020048271A1, “Methods and composition for restoring conformational stability of a protein of the p53 family” (priority 1998, published 2002).

What was measured:
[1] = test system: mutant p53 (position 173 or position 249) in Saos-2 cells; assay: WAF1 and p53 expression, Western blot, Saos-2 cells with transfected mutant p53; assay type: cell-based; conditions: position 173 or 249 mutant; Compound X for 16 hours
Method: WAF1 and p53 Expression. […] Protein concentrations were determined using Bradford reagent (BioRad) and 5 or 10 ug of cell lysate were loaded onto 8-16 percent gradient polyacrylamide/SDS gels (Novex). […] The blots were washed for one hour in three changes of Tris buffered saline with 0.1 percent Tween 20, before the addition of the secondary antibody, HRP-conjugated anti-mouse IgG. The bands were visualized using Renaissance ECL (DuPont) and exposure to Hyperfilm ECL (Amersham Life Science).

[2] = molecular target: T1, wild-type p53 DBD (Homo sapiens, UniProt P04637); assay: p53 DBD thermostabilization assay (ELISA for mAb1620 epitope); assay type: biochemical; conditions: 0.5 ng of p53 DBD heated at 45° C. for 30 minutes; read-out: SC50: concentration of compound required to preserve 50% of the epitope for mAb 1620
T1 construct: Recombinant DBD (residues 94-312) from wild-tvpe and mutant p53 proteins; made in house
T1 sequence (P04637 94-312): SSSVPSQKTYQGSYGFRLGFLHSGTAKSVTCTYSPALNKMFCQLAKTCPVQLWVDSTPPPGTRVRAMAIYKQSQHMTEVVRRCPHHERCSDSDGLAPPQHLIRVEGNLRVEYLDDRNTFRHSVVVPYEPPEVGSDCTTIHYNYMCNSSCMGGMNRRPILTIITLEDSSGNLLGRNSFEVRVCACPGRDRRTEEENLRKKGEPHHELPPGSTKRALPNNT
Method: Thermostabilization Assay. Recombinant DBD (residues 94-312) from wild-tvpe and mutant p53 proteins and FLAG-tagged p53 DBD were prepared as described (Pavletich et al., 1993, Genes and Dev. 7, 2556-2564; Bullock et al., 1997, supra.). Mutant proteins used were 143A, 173A, 175S. 249S, and 273H. A number of small molecule organic compounds were tested. Compound stocks were dissolved in DMSO at 10 mg/ml and diluted prior to use. The proteins (0.25-1.0 ng/well) were diluted in a buffer containing 25 mM HEPES, pH 6.8, 150 mM KCl, 10 mM dithiothreitol and attached in 50 ul to Reacti-Bind microtiter plates (Pierce) for 35 minutes on ice. The wells were rinsed with 25 mM HEPES, pH 6.8, 150 mM KCl, compound or diluted DMSO vehicle added, and the plates incubated at the indicated temperatures. Incubation was terminated by placing the wells on ice; ELISA assays performed while maintaining the plates on ice in order to avoid further alterations of the epitopes. Wells were blocked for 1 hour with cold 5 percent skim milk (Difco) in HEPES/KCl buffer prior to addition of the primary antibodies. Monoclonal antibodies mAb1620, mAb240 (Calbiochem) and anti-FLAG M2 antibody (Eastman Kodak Company) were diluted at 1:100-1:250 in HEPES/KCl and added at 100 ul/well for 30 minutes. The plates were rinsed twice with cold HEPES/KCl buffer and incubated with horseradish peroxidase (HRP)-conjugated anti-mouse IgG (Boehringer Mannheim) for another 30 minutes. The HRP signal was developed using TMB developer (Pierce) and the optical density of the signal was read on a BioRad microplate reader set at 450 nm.

[3] = test system: mutant mouse p53; conditions: Brown et al., 1997; cited from earlier work

Row | SMILES | EC50 [2] [µM] | other results
1 | COc1cccc2c1C(=O)c1c(O)c3c(c(O)c1C2=O)C[C@@](O)(C(=O)CO)C[C@@H]3O[C@H]1C[C@H](N)[C@H](O)[C@H](C)O1 [Adriamycin] |  | WAF1 expression in Saos-2 cells with mutant p53 [1]: did not induce WAF-1 expression
2 | C(=C\c1nc(NCCCN2CCOCC2)c2ccccc2n1)/c1ccccc1 [Compound 1A] | 36 | 
3 | C(=C\c1nc(N2CCOCC2)c2ccccc2n1)/c1ccccc1 [Compound 1B] | > 300 | 
4 | c1ccc2c(NCCCN3CCOCC3)c3cccnc3cc2c1 [Compound 2A] | 120 | 
5 | c1ccc2c(NCCN3CCOCC3)c3cccnc3cc2c1 [Compound 2B] | > 300 | 
6 | CCN(CC)CCCNc1c2ccccc2cc2ncccc12 [Compound 3A] | 50 | 
7 | CCN(CC)CCCCNc1c2ccccc2cc2ncccc12 [Compound 3B] | 120 | 
8 | CC(CN(C)C)CN1c2ccccc2Sc2ccccc21 (stereo not shown) [Compound 4A] | 38 | 
9 | CN(C)CCCN1c2ccccc2Sc2ccccc21 [Compound 4B] | > 300 | 
10 | OCC(O)CO [Glycerol] |  | Concentration restoring nuclear localization of mutant mouse p53 [3]: 600 mM
